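48-hour exposure; five concentrations; linearly interpolated endpoints. The concentration for full growth arrest is given as TGI.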
How the values were obtained:
Test in all cases: DTP human tumour cell line panel, 48 h
HS 578T breast = test system: HS 578T breast
K-562 leukemia = test system: K-562 leukemia
RXF 393 renal = test system: RXF 393 renal
KM12 colon = test system: KM12 colon
ACHN renal = test system: ACHN renal
MDA-MB-435 = test system: MDA-MB-435
OVCAR-3 ovarian = test system: OVCAR-3 ovarian
786-0 renal = test system: 786-0 renal
M14 melanoma = test system: M14 melanoma
A498 renal = test system: A498 renal
OVCAR-8 ovarian = test system: OVCAR-8 ovarian
OVCAR-5 ovarian = test system: OVCAR-5 ovarian
T-47D breast = test system: T-47D breast
MOLT-4 leukemia = test system: MOLT-4 leukemia
HOP-92 NSCLC = test system: HOP-92 NSCLC
DU-145 prostate = test system: DU-145 prostate
UACC-257 melanoma = test system: UACC-257 melanoma
MDA-N = test system: MDA-N
SNB-75 CNS = test system: SNB-75 CNS
SN12C renal = test system: SN12C renal
NCI-H522 lung = test system: NCI-H522 lung
UACC-62 melanoma = test system: UACC-62 melanoma
OVCAR-4 ovarian = test system: OVCAR-4 ovarian
MALME-3M melanoma = test system: MALME-3M melanoma
NCI/ADR-RES ovarian = test system: NCI/ADR-RES ovarian
SK-MEL-28 melanoma = test system: SK-MEL-28 melanoma
RPMI-8226 leukemia = test system: RPMI-8226 leukemia
HT29 colon = test system: HT29 colon
MDA-MB-231 breast = test system: MDA-MB-231 breast
HCT-15 colon = test system: HCT-15 colon
SK-MEL-2 melanoma = test system: SK-MEL-2 melanoma
SF-268 CNS = test system: SF-268 CNS
CCRF-CEM leukemia = test system: CCRF-CEM leukemia
CAKI-1 renal = test system: CAKI-1 renal
COLO 205 colon = test system: COLO 205 colon
BT-549 breast = test system: BT-549 breast
EKVX NSCLC = test system: EKVX NSCLC
PC-3 prostate = test system: PC-3 prostate
SNB-19 CNS = test system: SNB-19 CNS
A549 NSCLC = test system: A549 NSCLC
IGROV1 ovarian = test system: IGROV1 ovarian
U251 CNS = test system: U251 CNS
SK-OV-3 ovarian = test system: SK-OV-3 ovarian
MCF7 breast = test system: MCF7 breast
NCI-H460 lung = test system: NCI-H460 lung
HCT-116 colon = test system: HCT-116 colon
HCC-2998 colon = test system: HCC-2998 colon
HOP-62 NSCLC = test system: HOP-62 NSCLC
SF-295 CNS = test system: SF-295 CNS
SF-539 CNS = test system: SF-539 CNS
HL-60(TB) leukemia = test system: HL-60(TB) leukemia
NCI-H226 lung = test system: NCI-H226 lung
SR leukemia = test system: SR leukemia
SK-MEL-5 melanoma = test system: SK-MEL-5 melanoma
TK-10 renal = test system: TK-10 renal
LOX IMVI melanoma = test system: LOX IMVI melanoma
NCI-H23 lung = test system: NCI-H23 lung
SW-620 colon = test system: SW-620 colon
UO-31 renal = test system: UO-31 renal

## Nc1c2cc3ccc2nc2ccc(cc12)OCCOCCOCCOCCOCCOCCO3
HS 578T breast
  TGI: > 10 µM
K-562 leukemia
  TGI: > 10 µM
RXF 393 renal
  TGI: > 10 µM
KM12 colon
  TGI: > 10 µM
ACHN renal
  TGI: > 10 µM
MDA-MB-435
  TGI: > 10 µM
OVCAR-3 ovarian
  TGI: > 10 µM
786-0 renal
  TGI: > 10 µM
M14 melanoma
  TGI: > 10 µM
A498 renal
  TGI: > 10 µM
OVCAR-8 ovarian
  TGI: > 10 µM
OVCAR-5 ovarian
  TGI: > 10 µM
T-47D breast
  TGI: > 10 µM
MOLT-4 leukemia
  TGI: > 10 µM
HOP-92 NSCLC
  TGI: > 10 µM
DU-145 prostate
  TGI: > 10 µM
UACC-257 melanoma
  TGI: > 10 µM
MDA-N
  TGI: > 10 µM
SNB-75 CNS
  TGI: > 10 µM
SN12C renal
  TGI: > 10 µM
NCI-H522 lung
  TGI: > 10 µM
UACC-62 melanoma
  TGI: > 10 µM
OVCAR-4 ovarian
  TGI: > 10 µM
MALME-3M melanoma
  TGI: > 10 µM
NCI/ADR-RES ovarian
  TGI: > 10 µM
SK-MEL-28 melanoma
  TGI: > 10 µM
RPMI-8226 leukemia
  TGI: > 10 µM
HT29 colon
  TGI: > 10 µM
MDA-MB-231 breast
  TGI: > 10 µM
HCT-15 colon
  TGI: > 10 µM
SK-MEL-2 melanoma
  TGI: > 10 µM
SF-268 CNS
  TGI: > 10 µM
CCRF-CEM leukemia
  TGI: > 10 µM
CAKI-1 renal
  TGI: > 10 µM
COLO 205 colon
  TGI: > 10 µM
BT-549 breast
  TGI: > 10 µM
EKVX NSCLC
  TGI: > 10 µM
PC-3 prostate
  TGI: > 10 µM
SNB-19 CNS
  TGI: > 10 µM
A549 NSCLC
  TGI: > 10 µM
IGROV1 ovarian
  TGI: > 10 µM
U251 CNS
  TGI: > 10 µM
SK-OV-3 ovarian
  TGI: > 10 µM
MCF7 breast
  TGI: > 10 µM
NCI-H460 lung
  TGI: > 10 µM
HCT-116 colon
  TGI: > 10 µM
HCC-2998 colon
  TGI: > 10 µM
HOP-62 NSCLC
  TGI: > 10 µM
SF-295 CNS
  TGI: > 10 µM
SF-539 CNS
  TGI: > 10 µM
HL-60(TB) leukemia
  TGI: > 10 µM
NCI-H226 lung
  TGI: > 10 µM
SR leukemia
  TGI: > 10 µM
SK-MEL-5 melanoma
  TGI: > 10 µM
TK-10 renal
  TGI: > 10 µM
LOX IMVI melanoma
  TGI: > 10 µM
NCI-H23 lung
  TGI: > 10 µM
SW-620 colon
  TGI: > 10 µM

## CC(CC[C@@]1(O)OC2C[C@H]3[C@@H]4CC[C@H]5CC(OC6OC(CO)C(OC7OC(CO)C(O)C(OC8OCC(O)C(O)C8O)C7OC7OC(CO)C(O)C(O)C7O)C(O)C6O)[C@H](O)CC5(C)[C@H]4CCC3(C)C2[C@@H]1C)COC1OC(CO)C(O)C(O)C1O (some centres not stated)
HS 578T breast
  TGI: > 50 µM
K-562 leukemia
  TGI: > 50 µM
RXF 393 renal
  TGI: 17.2 µM
KM12 colon
  TGI: > 50 µM
ACHN renal
  TGI: > 50 µM
MDA-MB-435
  TGI: > 50 µM
OVCAR-3 ovarian
  TGI: 23.1 µM
786-0 renal
  TGI: 21.8 µM
M14 melanoma
  TGI: > 50 µM
A498 renal
  TGI: > 50 µM
OVCAR-8 ovarian
  TGI: > 50 µM
OVCAR-5 ovarian
  TGI: 27.8 µM
T-47D breast
  TGI: 34.6 µM
MOLT-4 leukemia
  TGI: > 50 µM
HOP-92 NSCLC
  TGI: > 50 µM
DU-145 prostate
  TGI: 10.3 µM
UACC-257 melanoma
  TGI: 48.2 µM
MDA-N
  TGI: > 50 µM
SNB-75 CNS
  TGI: 9.19 µM
SN12C renal
  TGI: 19.6 µM
NCI-H522 lung
  TGI: 22.3 µM
UACC-62 melanoma
  TGI: 45.6 µM
OVCAR-4 ovarian
  TGI: 36.9 µM
MALME-3M melanoma
  TGI: > 50 µM
NCI/ADR-RES ovarian
  TGI: 31.1 µM
SK-MEL-28 melanoma
  TGI: > 50 µM
RPMI-8226 leukemia
  TGI: > 50 µM
HT29 colon
  TGI: 33.4 µM
MDA-MB-231 breast
  TGI: > 50 µM
HCT-15 colon
  TGI: > 50 µM
SK-MEL-2 melanoma
  TGI: 31.6 µM
SF-268 CNS
  TGI: 9.32 µM
CCRF-CEM leukemia
  TGI: > 50 µM
CAKI-1 renal
  TGI: 43.8 µM
COLO 205 colon
  TGI: 31 µM
BT-549 breast
  TGI: 6.64 µM
EKVX NSCLC
  TGI: 8.9 µM
PC-3 prostate
  TGI: > 50 µM
SNB-19 CNS
  TGI: > 50 µM
A549 NSCLC
  TGI: 11.1 µM
IGROV1 ovarian
  TGI: > 50 µM
U251 CNS
  TGI: > 50 µM
SK-OV-3 ovarian
  TGI: 43.3 µM
MCF7 breast
  TGI: > 50 µM
NCI-H460 lung
  TGI: 10.2 µM
HCT-116 colon
  TGI: 47.3 µM
HCC-2998 colon
  TGI: 34.2 µM
HOP-62 NSCLC
  TGI: 17.9 µM
SF-295 CNS
  TGI: 45.2 µM
UO-31 renal
  TGI: 21.3 µM
SF-539 CNS
  TGI: 10.7 µM
HL-60(TB) leukemia
  TGI: 29.1 µM
NCI-H226 lung
  TGI: 28.8 µM
SR leukemia
  TGI: > 50 µM
SK-MEL-5 melanoma
  TGI: 17.7 µM
TK-10 renal
  TGI: 16.6 µM
LOX IMVI melanoma
  TGI: 48.8 µM
NCI-H23 lung
  TGI: 15.9 µM
SW-620 colon
  TGI: > 50 µM
